In the supplement of paper PMC8149375:

Legend:
Settings in all cases: treatment: drug alone; 5 days
769-P [1] = assay: GI50, drug alone; higher = less potent
Procedure: (§1)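 Primary HTS: 8 RCC cell lines treated with 8 doses (up to 10 uM) of each library drug alone for 5 days; viability read by CellTiter-Glo and normalised to DMSO. GI50 was fitted with XLfit (4-parameter), AUC is the area under the dose-response curve, and minimum viability is the lowest fraction of DMSO viability across doses.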

786-O [2] = assay: GI50, drug alone; higher = less potent
Procedure: as §1

A498 [3] = assay: GI50, drug alone; higher = less potent
Procedure: as §1

ACHN [4] = assay: GI50, drug alone; higher = less potent
Procedure: as §1

CAKI-1 [5] = assay: GI50, drug alone; higher = less potent
Procedure: as §1

SN12C [6] = assay: GI50, drug alone; higher = less potent
Procedure: as §1

TK-10 [7] = assay: GI50, drug alone; higher = less potent
Procedure: as §1

UO-31 [8] = assay: GI50, drug alone; higher = less potent
Procedure: as §1

769-P [9] = assay: minimum viability across doses, drug alone, relative to DMSO (fraction); higher = less growth inhibition
Procedure: as §1

786-O [10] = assay: as above
Procedure: as §1

A498 [11] = assay: as above
Procedure: as §1

ACHN [12] = assay: as above
Procedure: as §1

CAKI-1 [13] = assay: as above
Procedure: as §1

SN12C [14] = assay: as above
Procedure: as §1

TK-10 [15] = assay: as above
Procedure: as §1

UO-31 [16] = assay: as above
Procedure: as §1

769-P [17] = assay: AUC of dose-response viability curve, drug alone (arbitrary (AUC of normalised viability)); higher = less growth inhibition
Procedure: as §1

786-O [18] = assay: as above
Procedure: as §1

A498 [19] = assay: as above
Procedure: as §1

ACHN [20] = assay: as above
Procedure: as §1

CAKI-1 [21] = assay: as above
Procedure: as §1

SN12C [22] = assay: as above
Procedure: as §1

TK-10 [23] = assay: as above
Procedure: as §1

UO-31 [24] = assay: as above
Procedure: as §1

Structure (SMILES) | GI50, drug alone (786-O [2]) [µM] | GI50, drug alone (ACHN [4]) [µM] | GI50, drug alone (769-P [1]) [µM] | GI50, drug alone (A498 [3]) [µM] | GI50, drug alone (CAKI-1 [5]) [µM] | GI50, drug alone (SN12C [6]) [µM] | GI50, drug alone (TK-10 [7]) [µM] | GI50, drug alone (UO-31 [8]) [µM] | minimum viability across doses (769-P [9]) | minimum viability across doses (786-O [10]) | minimum viability across doses (A498 [11]) | minimum viability across doses (ACHN [12]) | minimum viability across doses (CAKI-1 [13]) | minimum viability across doses (SN12C [14]) | minimum viability across doses (TK-10 [15]) | minimum viability across doses (UO-31 [16]) | AUC of dose-response viability curve (769-P [17]) | AUC of dose-response viability curve (786-O [18]) | AUC of dose-response viability curve (A498 [19]) | AUC of dose-response viability curve (ACHN [20]) | AUC of dose-response viability curve (CAKI-1 [21]) | AUC of dose-response viability curve (SN12C [22]) | AUC of dose-response viability curve (TK-10 [23]) | AUC of dose-response viability curve (UO-31 [24])
O=C1NC(=O)/C(=C/c2ccc(-c3ccc(F)cc3O)o2)S1 | > 10 | > 10 | > 10 | > 10 | > 10 | > 10 | > 10 | 4.73 | 0.905 | 0.694 | 1.21 | 0.872 | 0.955 | 0.917 | 0.853 | 0.244 | 3.41 | 2.68 | 4.49 | 3.49 | 3.51 | 3.48 | 3.25 | 4.02
N#Cc1c(O)c2c(-c3ccc(-c4ccccc4O)cc3)csc2[nH]c1=O | > 10 | > 10 | > 10 | > 10 | > 10 | > 10 | > 10 | > 10 | 0.963 | 0.823 | 0.9 | 0.904 | 0.977 | 0.868 | 0.929 | 0.948 | 3.7 | 3.47 | 3.53 | 3.45 | 3.65 | 3.39 | 3.6 | 4.14
O=C1NC(=O)/C(=C/c2ccc3nccnc3c2)S1 | > 10 | > 10 | > 10 | > 10 | > 10 | > 10 | > 10 | > 10 | 0.891 | 0.651 | 0.869 | 0.837 | 0.648 | 0.805 | 0.802 | 0.902 | 3.39 | 3.04 | 3.39 | 3.28 | 3.43 | 3.19 | 3.3 | 4.01
Cc1cc2c(F)c(Oc3ncnn4cc(OC[C@@H](C)O)c(C)c34)ccc2[nH]1 | > 10 | > 10 | > 10 | > 10 | 8.98 | > 10 | > 10 | 9.55 | 0.901 | 0.668 | 1.09 | 0.628 | 0.427 | 0.909 | 0.733 | 0.457 | 3.39 | 3.09 | 4.21 | 3.04 | 3.4 | 3.28 | 3.23 | 4.46
Cc1cc2c(F)c(Oc3ncnn4cc(OC[C@@H](C)OC(=O)[C@H](C)N)c(C)c34)ccc2[nH]1 | 8.62 | 8.45 | > 10 | > 10 | > 10 | > 10 | > 10 | 9.72 | 0.818 | 0.358 | 0.898 | 0.417 | 0.605 | 0.75 | 0.637 | 0.458 | 3.33 | 2.99 | 3.68 | 2.61 | 3.29 | 3.35 | 3.26 | 3.77
O=C1NC(=O)/C(=C/c2ccc3c(c2)OC(F)(F)O3)S1 | > 10 | > 10 | > 10 | > 10 | > 10 | > 10 | > 10 | > 10 | 0.947 | 0.474 | 0.83 | 0.93 | 0.98 | 0.775 | 0.858 | 0.92 | 3.5 | 2.35 | 3.81 | 3.46 | 3.54 | 3.07 | 3.24 | 4.4

Continued, in another order:

GI50, drug alone (786-O [2]) [µM] | GI50, drug alone (ACHN [4]) [µM] | Structure (SMILES) | GI50, drug alone (769-P [1]) [µM] | GI50, drug alone (A498 [3]) [µM] | GI50, drug alone (CAKI-1 [5]) [µM] | GI50, drug alone (SN12C [6]) [µM] | GI50, drug alone (TK-10 [7]) [µM] | GI50, drug alone (UO-31 [8]) [µM] | minimum viability across doses (769-P [9]) | minimum viability across doses (786-O [10]) | minimum viability across doses (A498 [11]) | minimum viability across doses (ACHN [12]) | minimum viability across doses (CAKI-1 [13]) | minimum viability across doses (SN12C [14]) | minimum viability across doses (TK-10 [15]) | minimum viability across doses (UO-31 [16]) | AUC of dose-response viability curve (769-P [17]) | AUC of dose-response viability curve (786-O [18]) | AUC of dose-response viability curve (A498 [19]) | AUC of dose-response viability curve (ACHN [20]) | AUC of dose-response viability curve (CAKI-1 [21]) | AUC of dose-response viability curve (SN12C [22]) | AUC of dose-response viability curve (TK-10 [23]) | AUC of dose-response viability curve (UO-31 [24])
0.0969 | 0.267 | CCCCOc1c(C(=O)c2c(F)cc(C)cc2F)cnc2[nH]ncc12 | > 10 | > 10 | > 10 | > 10 | 2.45 | 0.984 | 0.562 | 0.0155 | 0.575 | 0.198 | 0.745 | 0.564 | 0.47 | 0.00742 | 2.95 | 1.46 | 3.32 | 1.93 | 3.12 | 2.98 | 2.35 | 3.45
> 10 | 8.82 | CCOc1ccn(-c2ccc(F)cc2)c(=O)c1C(=O)Nc1ccc(Oc2ccnc(N)c2Cl)c(F)c1 | > 10 | > 10 | > 10 | > 10 | > 10 | > 10 | 0.817 | 0.503 | 0.87 | 0.443 | 0.47 | 0.75 | 0.665 | 0.722 | 3.17 | 2.3 | 3.52 | 3.06 | 2.99 | 3.14 | 2.99 | 4.18
> 10 | 4.1 | Cc1c(NC(=O)OC[C@@H]2COCCN2)cn2ncnc(Nc3ccc4c(cnn4Cc4cccc(F)c4)c3)c12.Cl | 5.19 | > 10 | > 10 | > 10 | 1.94 | > 10 | 0.368 | 0.592 | 0.861 | 0.419 | 0.573 | 0.677 | 0.234 | 0.929 | 2.92 | 3.22 | 3.52 | 2.75 | 3.17 | 3.22 | 2.53 | 4.06
> 10 | 1.88 | C[C@@H]1COC(Nc2ccc3ncnc(Nc4ccc(OCc5nccs5)c(Cl)c4)c3c2)=N1 | 4.05 | > 10 | 9.75 | > 10 | 2.21 | > 10 | 0.431 | 0.5 | 1.1 | 0.433 | 0.478 | 0.76 | 0.369 | 0.919 | 2.72 | 2.6 | 4.91 | 2.8 | 3.13 | 3.25 | 2.46 | 4.74
